Paper PMC6979384, “Characterization of the plant homeodomain (PHD) reader family for their histone tail interactions” (Epigenetics & Chromatin, 2020)

Tests used:
Type in all cases: binding, human
PHF21A = assay: Histone peptide microarray; conditions: sheet "Array Heatmap"; GST-tagged reader; histone peptide array, total n = 4
In short: (§1)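 Histone peptide library (293 synthetic peptides, single/combinatorial PTMs) arrayed and probed with 0.5 μM purified GST-PHD domain; optimized protocol; quadruplicate mean and SD reported.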

PHF8 = assay: Histone peptide microarray; conditions: sheet "Array Heatmap"; GST-tagged reader; histone peptide array, total n = 4
In short: as §1

TAF3 = assay: Histone peptide microarray; conditions: sheet "Array Heatmap"; GST-tagged reader; histone peptide array, total n = 4
In short: as §1

KDM5A (3) = assay: Histone peptide microarray; conditions: sheet "Array Heatmap"; GST-tagged reader; histone peptide array, total n = 4
In short: as §1

ING5 = assay: Histone peptide microarray; conditions: sheet "Array Heatmap"; GST-tagged reader; histone peptide array, total n = 4
In short: as §1

PHF2 = assay: Histone peptide microarray; conditions: sheet "Array Heatmap"; GST-tagged reader; histone peptide array, total n = 4
In short: as §1

BPTF (PB) = assay: Histone peptide microarray; conditions: sheet "Array Heatmap"; GST-tagged reader; histone peptide array, total n = 4
In short: as §1

DPF2 (PPC2W2) = assay: Histone peptide microarray; conditions: sheet "Array Heatmap"; GST-tagged reader; histone peptide array, total n = 4
In short: as §1

KDM7A = assay: Histone peptide microarray; conditions: sheet "Array Heatmap"; GST-tagged reader; histone peptide array, total n = 4
In short: as §1

MORC3 (CW) = assay: Histone peptide microarray; conditions: sheet "Array Heatmap"; GST-tagged reader; histone peptide array, total n = 4
In short: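 Steps: express and purify GST-tagged PHD reader; incubate 0.5 μM protein on a peptide microarray (293 histone peptides, single or combined PTMs) following an optimized protocol; average signal across 4 replicates.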

KDM5B (1) = assay: Histone peptide microarray; conditions: sheet "Array Heatmap"; GST-tagged reader; histone peptide array, total n = 4
In short: as §1

KDM4C (TTP) = assay: Histone peptide microarray; conditions: sheet "Array Heatmap"; GST-tagged reader; histone peptide array, total n = 4
In short: as §1

TRIM66 (PB) = assay: Histone peptide microarray; conditions: sheet "Array Heatmap"; GST-tagged reader; histone peptide array, total n = 4
In short: as §1

ING2 = assay: Histone peptide microarray; conditions: sheet "Array Heatmap"; GST-tagged reader; histone peptide array, total n = 4
In short: as §1

ING1 = assay: Histone peptide microarray; conditions: sheet "Array Heatmap"; GST-tagged reader; histone peptide array, total n = 4
In short: as §1

ING3 = assay: Histone peptide microarray; conditions: sheet "Array Heatmap"; GST-tagged reader; histone peptide array, total n = 4
In short: as §1

CHD5 (PCC) = assay: Histone peptide microarray; conditions: sheet "Array Heatmap"; GST-tagged reader; histone peptide array, total n = 4
In short: as §1

PHRF1 (RP) = assay: Histone peptide microarray; conditions: sheet "Array Heatmap"; GST-tagged reader; histone peptide array, total n = 4
In short: as §1

AIRE (PP) = assay: Histone peptide microarray; conditions: sheet "Array Heatmap"; GST-tagged reader; histone peptide array, total n = 4
In short: as §1

CHD4 (PPCC) = assay: Histone peptide microarray; conditions: sheet "Array Heatmap"; GST-tagged reader; histone peptide array, total n = 4
In short: as §1

ING4 = assay: Histone peptide microarray; conditions: sheet "Array Heatmap"; GST-tagged reader; histone peptide array, total n = 4
In short: as §1

PHF13 = assay: Histone peptide microarray; conditions: sheet "Array Heatmap"; GST-tagged reader; histone peptide array, total n = 4
In short: as §1

CHD5 (PPCC) = assay: Histone peptide microarray; conditions: sheet "Array Heatmap"; GST-tagged reader; histone peptide array, total n = 4
In short: as §1

KDM5B (3) = assay: Histone peptide microarray; conditions: sheet "Array Heatmap"; GST-tagged reader; histone peptide array, total n = 4
In short: as §1

KDM5A (1) = assay: Histone peptide microarray; conditions: sheet "Array Heatmap"; GST-tagged reader; histone peptide array, total n = 4
In short: as §1

SP140L = assay: Histone peptide microarray; conditions: sheet "Array Heatmap"; GST-tagged reader; histone peptide array, total n = 4
In short: as §1

RAG2 = assay: Histone peptide microarray; conditions: sheet "Array Heatmap"; GST-tagged reader; histone peptide array, total n = 4
In short: as §1

BAZ2B = assay: Histone peptide microarray; conditions: sheet "Array Heatmap"; GST-tagged reader; histone peptide array, total n = 4
In short: as §1

DIDO1 = assay: Histone peptide microarray; conditions: sheet "Array Heatmap"; GST-tagged reader; histone peptide array, total n = 4
In short: as §1

PHF23 = assay: Histone peptide microarray; conditions: sheet "Array Heatmap"; GST-tagged reader; histone peptide array, total n = 4
In short: as §1

MLL5 = assay: Histone peptide microarray; conditions: sheet "Array Heatmap"; GST-tagged reader; histone peptide array, total n = 4
In short: as §1

H3K4me0 readers = assay: dCypher AlphaScreen Phase B (full peptide screen), H3K4me0 readers together; conditions: 100 nM peptide, 23 °C, n = 2
Description: Fig. 3 dCypher histone peptide-binding assays define the PTM recognition preference of PHD proteins with high sensitivity. a–h Binding curves to determine optimal reader protein concentration for full peptide library screening on the dCypher® AlphaScreen® platform (see “Methods”). X-axes are log(protein concentration (M)) at constant peptide concentration (100 nM); Y-axes are AlphaScreen counts, representing relative strength of binding (n = 2; error bars are S.D.). i Heat map represents relative binding to H3 N-terminal peptides (left) by PHD-containing GST-tagged proteins (top) using the dCypher AlphaScreen platform. Protein concentrations can be found in Additional file 5: Table S4. […]
Once the optimal protein concentration ranges for each of the eight readers were determined, we conducted the full dCypher peptide screen (293 histone peptides) (Fig. 3i; Additional file 4: Table S3).
The dCypher peptide screen assay was performed as previously described. Briefly, 5 μL of GST-tagged reader domains (optimal protein concentration for library screening determined by initial binding curves to candidate peptides) were incubated with 5 μL of 400 nM (100 nM Final) biotinylated histone peptides (EpiCypher) for 30 min at 23 °C in 1× AlphaLISA Epigenetics buffer + epigenetics buffer supplement (PerkinElmer, AL1008) in a 384-well plate. […]

Substance: H3K9me3 + S10p: H3 1-20
- Array Heatmap signal, PHF21A (PHF21A): 0.4454
- Array Heatmap signal, PHF8 (PHF8): 0.3127
- Array Heatmap signal, TAF3 (TAF3): 0.2418
- Array Heatmap signal, KDM5A (3) (KDM5A (3)): 0.3848
- Array Heatmap signal, ING5 (ING5): 0.3112
- Array Heatmap signal, PHF2 (PHF2): 0.4043
- Array Heatmap signal, BPTF (PB) (BPTF (PB)): 0.3029
- Array Heatmap signal, DPF2 (PPC2W2) (DPF2 (PPC2W2)): 0.6544
- Array Heatmap signal, KDM7A (KDM7A): 0.3788
- Array Heatmap signal, MORC3 (CW) (MORC3 (CW)): 0.3534
- Array Heatmap signal, KDM5B (1) (KDM5B (1)): 0.7016
- Array Heatmap signal, KDM4C (TTP) (KDM4C (TTP)): 0.4574
- Array Heatmap signal, TRIM66 (PB) (TRIM66 (PB)): 0.578
- Array Heatmap signal, ING2 (ING2): 0.5763
- Array Heatmap signal, ING1 (ING1): 0.4648
- Array Heatmap signal, ING3 (ING3): 0.3956
- Array Heatmap signal, CHD5 (PCC) (CHD5 (PCC)): 0.7991
- Array Heatmap signal, PHRF1 (RP) (PHRF1 (RP)): 0.515
- Array Heatmap signal, AIRE (PP) (AIRE (PP)): 0.5449
- Array Heatmap signal, CHD4 (PPCC) (CHD4 (PPCC)): 0.5281
- Array Heatmap signal, ING4 (ING4): 0.3907
- Array Heatmap signal, PHF13 (PHF13): 0.5317
- Array Heatmap signal, CHD5 (PPCC) (CHD5 (PPCC)): 0.486
- Array Heatmap signal, KDM5B (3) (KDM5B (3)): 0.4113
- Array Heatmap signal, KDM5A (1) (KDM5A (1)): 0.4357
- Array Heatmap signal, SP140L (SP140L): 0.319
- Array Heatmap signal, RAG2 (RAG2): 0.2135
- Array Heatmap signal, BAZ2B (BAZ2B): 0.4277
- Array Heatmap signal, DIDO1 (DIDO1): 0.5964
- Array Heatmap signal, PHF23 (PHF23): 0.4606
- Array Heatmap signal, MLL5 (MLL5): 0.5167
- loss of binding on S10 phosphorylation (H3K4me0 readers): four out of five of the H3K4me0 readers lose binding capacity
